Test results as given in PMC6769468, “Endogenous Neuropeptide Nocistatin Is a Direct Agonist of Acid-Sensing Ion Channels (ASIC1, ASIC2 and ASIC3)” (Biomolecules, 2019).
Ends that are not written are not given here.

Key:
[1] = biological target: T1, rat ASIC1b (Rattus norvegicus, UniProt P55926); experiment: Whole-cell current activation, rat ASIC1b in X. laevis oocytes; type: cell-based
T1 construct: expressed in transfected cells; host or cells: Xenopus laevis oocytes (injected)
T1 sequence (P55926 1-559 isoform P55926-3): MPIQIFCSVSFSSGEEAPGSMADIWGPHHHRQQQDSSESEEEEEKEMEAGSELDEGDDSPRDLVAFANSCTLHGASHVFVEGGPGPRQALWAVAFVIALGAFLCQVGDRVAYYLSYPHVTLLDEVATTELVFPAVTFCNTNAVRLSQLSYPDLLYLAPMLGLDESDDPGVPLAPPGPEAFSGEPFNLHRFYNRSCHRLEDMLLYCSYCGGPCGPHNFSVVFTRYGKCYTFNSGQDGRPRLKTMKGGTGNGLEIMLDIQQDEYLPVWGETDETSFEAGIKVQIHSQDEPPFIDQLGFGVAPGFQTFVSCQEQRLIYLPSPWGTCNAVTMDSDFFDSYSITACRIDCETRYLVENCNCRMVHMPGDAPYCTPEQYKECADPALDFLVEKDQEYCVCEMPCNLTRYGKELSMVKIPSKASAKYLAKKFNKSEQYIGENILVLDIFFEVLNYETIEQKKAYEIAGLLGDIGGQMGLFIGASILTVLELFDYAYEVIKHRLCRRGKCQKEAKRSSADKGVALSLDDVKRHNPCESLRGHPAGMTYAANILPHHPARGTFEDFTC
Method: (§1) Oocytes expressed rASIC1a, rASIC1b, rASIC2a, and rASIC3 homomeric channels were prepared as described. Injected oocytes were kept for two–three days at 19 °C and then for up to seven days at 15 °C in ND-96 medium supplemented with gentamycin (50 μg·mL^−1) and containing (in mM): 96 NaCl, 2 KCl, 1.8 CaCl2, 1 MgCl2, and 10 HEPES titrated to pH 7.4 with NaOH. Electrophysiological recordings were performed using the GeneClamp500 amplifier (Axon Instruments, Inverurie, UK) at a holding potential of -50 mV. The data were filtered at 20 Hz and digitized at 100 Hz using the L780 AD converter (L-Card, Moscow, Russia). Microelectrodes were filled with 3 M KCl. The external bath solution was ND-96 with pH adjusted to 7.4/7.8 (10 mM HEPES) /8.5 (10 mM Tris). Nocistatin containing solutions were freshly prepared and buffered each experimental day in ND-96 bath solution (pH 7.4/7.8/8.5). Proton-activated currents through ASIC channels were elicited by application of ND-96, in which 10 mM of HEPES was substituted with 10 mM MES at pH 5.5/ 10 mM acetic acid at pH 4.5. The whole-cell recording was performed if a response to the control pH stimulus was stable in at least two replicates. Nocistatin-activated currents were elicited by application of nocistatin containing solutions with various concentrations of the peptide.
(§2) Extracellular solutions were applied using a computer-controlled valve system with a flow rate of 1 mL/min. The oocyte chamber volume was 80 µL. The validity of the application system for studying ASIC channels expressed in oocytes was confirmed in experiments by application of a Cl-free solution (containing (in mM): 130 NMDG, 1 MgGluc2, 2 KGluc, 5 HEPES) (pH 7.4). Fast application of proton/peptide-activating solution was performed at a flow rate of 1 mL/sec (the change of the bath solution occurred within 100 ms), followed by PC controlled flow stopping (from 5 to 15 s).
(§3) (d) The time course of curves’ decay was fitted using a mono-exponential equation: F4(x) = A1*e^(-x/τdes) + A0, where F4(x) is the current amplitude at the time point x, A1 is the maximal current amplitude, A0 is its steady-state value and τdes is the […].
(§4) All data are presented as mean ± SEM. The significance of normalized data differences was determined with a non-parametric Kruskal-Wallis ANOVA test with the significance level * p < 0.05 and ** p < 0.01; ns, non-significant.

[2] = biological target: T2, rat ASIC1a (Rattus norvegicus, UniProt P55926); experiment: Whole-cell current activation, rat ASIC1a in X. laevis oocytes; type: cell-based; settings: for ASIC1a current amplitude, % of control pH 5.5 stimulus: n = 4
T2 construct: expressed in transfected cells; host or cells: Xenopus laevis oocytes (injected)
T2 sequence (P55926 1-526): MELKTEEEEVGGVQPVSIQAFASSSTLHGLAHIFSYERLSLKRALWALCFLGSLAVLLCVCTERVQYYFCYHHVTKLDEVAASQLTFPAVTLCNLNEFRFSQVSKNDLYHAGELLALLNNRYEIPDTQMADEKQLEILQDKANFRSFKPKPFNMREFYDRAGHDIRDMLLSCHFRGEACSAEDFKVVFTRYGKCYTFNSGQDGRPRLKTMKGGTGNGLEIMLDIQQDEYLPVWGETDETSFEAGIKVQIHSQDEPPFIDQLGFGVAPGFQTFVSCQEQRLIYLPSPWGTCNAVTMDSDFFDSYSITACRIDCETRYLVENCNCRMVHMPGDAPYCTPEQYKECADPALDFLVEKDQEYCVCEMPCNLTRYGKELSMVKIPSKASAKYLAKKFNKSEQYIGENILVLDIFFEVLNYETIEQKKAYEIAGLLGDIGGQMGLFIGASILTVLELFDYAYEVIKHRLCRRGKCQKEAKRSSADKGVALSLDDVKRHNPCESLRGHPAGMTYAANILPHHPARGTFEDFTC
Method: as §1, §2
Analysis of electrophysiological data was performed using OriginPro 8.6 software (OriginLab, Northampton, MA, USA). Curves were fitted using different logistic equations:
(a) Usual logistic equation [33] F1(x) = A – A/(1 + (x/x0)^nH), where F1(x) is the current amplitude at nocistatin concentration x ([x]) (response at concentration x), A is the maximal current amplitude (or the maximum asymptote or the stabilized response for an infinite concentration), x0 is the value of [x] at which the function reach half their maximum value (the EC50 value), and nH is the Hill coefficient (slope factor or a level of cooperativity);
(b) Equation for the model of unequal sites occupation F2(x) = A/(1 + (x/EC501)^nH)*(1 + (x/EC502)), multiplication of two logistic equations where F2(x) is the current amplitude at nocistatin concentration x, A is the maximal current amplitude, [EC501] is the half-maximal concentration of nocistatin binding to pool of “cooperative” sites (or 0.5 probability of “cooperative” sites’ occupancy) and [EC502] is the half-maximal concentration of nocistatin binding to additional unequal site (or 0.5 probability of single site occupancy), and nH is the Hill coefficient (slope factor) for the pool of cooperative sites;
as §3, §4

[3] = system: uninjected oocytes; experiment: Application to uninjected oocytes (negative control); type: cell-based, Xenopus laevis; settings: 1 mM rNS
Method: as §1, with “peptide. […]” for “peptide.”

Sequence: MPRVRSVVQARDAEPEADAEPVADEADEVEQKQLQ [rNS]
- Acurrent, nocistatin versus protons ([1]; 1 mM rNS vs pH drop 7.4–5.5): did not differ between protons and nocistatin
- Desensitization time, difference between stimuli ([1]; 1 mM rNS vs pH drop 7.4–5.5): No differences were observed in desensitization time
- tmax, nocistatin versus protons ([1]; 1 mM rNS vs pH drop 7.4–5.5): no differences
- τdes (desensitization time constant) ([1]; 1 mM rNS, conditioning pH 7.4, mean ± S.E. from 4–7 measurements): 0.5 ± 0.06 s
- ASIC1a current amplitude, % of control pH 5.5 stimulus ([2]; 1 mM nocistatin, conditioning pH 7.4): 95.5 ± 1.8%
- ASIC1a current amplitude, % of control pH 5.5 stimulus ([2]; 1 mM nocistatin, conditioning pH 7.8): 89.5 ± 2.8%
- ASIC1a current amplitude, % of control pH 5.5 stimulus ([2]; 1 mM nocistatin, conditioning pH 8.5): 86.7 ± 2.5%
- Maximal activating effect versus response to a pH drop of 7.4–5.5 ([2]; 1 mM nocistatin, extracellular pH 7.4): comparable to the response to a pH drop of 7.4–5.5
- Acurrent, nocistatin versus protons ([2]; 1 mM rNS vs pH drop 7.4–5.5): did not differ between protons and nocistatin
- tmax, nocistatin versus protons ([2]; 1 mM rNS vs pH drop 7.4–5.5): no differences
- τdes (desensitization time constant) ([2]; 1 mM rNS, conditioning pH 7.4, mono-exponential fit, mean ± S.E. from 4–7 measurements): 1.4 ± 0.1 s
- Hill coefficient (nH), integral current activation ([2]; integral current, equation F2, n = 5): 4.8 ± 0.7
- Hill coefficient (nH) of activation ([2]; peak amplitude, pH 7.4, equation F2, n = 5): 7.44 ± 0.95
- Effect on uninjected oocytes [3]: did not produce any effects on the uninjected oocytes
